Measured values reported in patent US6939534B2, “Method to treat pulmonary hypoplasia in the newborn” (GenoMed, LLC, priority 2001, dated 2005).

What was measured:
[1] = inhaled; cited from earlier work
[2] = Stability under acidification (pH 1-2) and heating (100° C. for 5 min); type: physicochemical; conditions: acidification to pH 1-2, heating to 100° C. for 5 min
Protocol: Since the EGF receptor can be activated by either EGF or transforming growth factor-α (TGF-α), and TGF-α is important in fetal development, and is also elaborated by the distal nephron, the EGF and TGF-α content of human amniotic fluid was measured, using specific radioimmunoassays and immunoprecipitation and immunoblotting. […] EGF, but not TGF-α, is stable under these conditions. […] In neonates, mature EGF (6 kD) is the predominant form in urine.
No significant concentration (<0.6 ng/ml) of TGF-α or EGF in human amniotic fluid was detectable directly by RIA or RRA.

[3] = animal models; cited from earlier work
[4] = test system: type II pneumocytes; conditions: applied to type II pneumocytes in culture; cited from earlier work

Compound: [N]=O [inhaled nitric oxide, nitric oxide]
- half-life [1]: very short

Compound: epidermal growth factor [EGF]
- stability [2]: stable
- toxicity [3]: no toxicity
- production of surfactant [4]: stimulates production of surfactant
